From article PMC5722316, “Synthesis of novel purpurealidin analogs and evaluation of their effect on the cancer-relevant potassium channel KV10.1” (PLoS ONE, 2017) come the findings set out here.

Series [1] can be described thus: Cytotoxicity assay (CellTox Green Dye, IncuCyte). The settings on record: indicative, from AUC vs concentration (2-100 μM), read-out: Cytotoxic effect (EC50). The series is classed as cell-based. Here is the method: Cell lines SH-SY5Y (ACC 209), DU145 (ACC 261), LNCaP (ACC 256) and NIH-3T3 (ACC 59) were purchased from DSMZ (Germany). MDA-MB-435S (HTB 129) and hTERT RPE-1 (CRL 4000) were obtained from ATCC (USA). Cell lines were cultured in their recommended media Supplemented with 10% or 15% FCS (PAA laboratories, Germany) at 37°C in humidified 5% CO2 atmosphere. All media were purchased from ThermoFisher Scientific (Waltham, Massachusetts, United States).
Cell proliferation, cytotoxicity and apoptosis were assessed in a 96-well microtiter plate by live-cell imaging using an IncuCyte Zoom System (Essen BioScience, UK). Cell proliferation was monitored in terms of cell confluency (%). Cell cytotoxicity was assessed by the CellTox Green Dye assay (Promega, Madison, Wisconsin, USA). The Incucyte Caspase-3/7 apoptosis assay (Essen BioScience, UK) was used to evaluate the effect of compound 5 on the apoptotic pathway. As negative controls media supplemented with 0.05% of DMSO were used.
Live-cell imaging data were collected from the IncuCyte Zoom software and analyzed using GraphPad Prism 5 software. Proliferation was measured as Phase Object Confluence (%), cytotoxicity and apoptosis were measured as Green Object Count (1/mm^2). All data are represented as mean S.E.M of n = 6 different wells.
The following concentrations of compound 5 were added to the different cell lines, 100 μM, 50 μM, 20 μM, 10 μM, 5 μM and 2 μM to assess its effect on cell proliferation (S1 Fig) and cytotoxicity (S2 Fig). Indicative IC50-values for the proliferation assays were obtained by plotting the areas under the curve (AUC × 10^3) against the tested compound 5 concentrations and by fitting the curve with a logistic dose-response equation. The EC50-values for the cytotoxicity assays were calculated correspondingly (S3 Fig). Although more data points would be necessary to calculate precise IC50 and EC50-values, it is clear that compound 5 inhibits the proliferation and induces cytotoxicity in all the tested cell lines in the low to middle micromolar range.

A further series addresses T1, hKV10.1a (Homo sapiens, UniProt O95259).
T1 construct: expressed in transfected cells; host or cells: Xenopus laevis oocytes injected with cRNA transcribed from the hKV10.1a-pSGEM plasmid
T1 sequence (O95259 1-962 isoform O95259-2): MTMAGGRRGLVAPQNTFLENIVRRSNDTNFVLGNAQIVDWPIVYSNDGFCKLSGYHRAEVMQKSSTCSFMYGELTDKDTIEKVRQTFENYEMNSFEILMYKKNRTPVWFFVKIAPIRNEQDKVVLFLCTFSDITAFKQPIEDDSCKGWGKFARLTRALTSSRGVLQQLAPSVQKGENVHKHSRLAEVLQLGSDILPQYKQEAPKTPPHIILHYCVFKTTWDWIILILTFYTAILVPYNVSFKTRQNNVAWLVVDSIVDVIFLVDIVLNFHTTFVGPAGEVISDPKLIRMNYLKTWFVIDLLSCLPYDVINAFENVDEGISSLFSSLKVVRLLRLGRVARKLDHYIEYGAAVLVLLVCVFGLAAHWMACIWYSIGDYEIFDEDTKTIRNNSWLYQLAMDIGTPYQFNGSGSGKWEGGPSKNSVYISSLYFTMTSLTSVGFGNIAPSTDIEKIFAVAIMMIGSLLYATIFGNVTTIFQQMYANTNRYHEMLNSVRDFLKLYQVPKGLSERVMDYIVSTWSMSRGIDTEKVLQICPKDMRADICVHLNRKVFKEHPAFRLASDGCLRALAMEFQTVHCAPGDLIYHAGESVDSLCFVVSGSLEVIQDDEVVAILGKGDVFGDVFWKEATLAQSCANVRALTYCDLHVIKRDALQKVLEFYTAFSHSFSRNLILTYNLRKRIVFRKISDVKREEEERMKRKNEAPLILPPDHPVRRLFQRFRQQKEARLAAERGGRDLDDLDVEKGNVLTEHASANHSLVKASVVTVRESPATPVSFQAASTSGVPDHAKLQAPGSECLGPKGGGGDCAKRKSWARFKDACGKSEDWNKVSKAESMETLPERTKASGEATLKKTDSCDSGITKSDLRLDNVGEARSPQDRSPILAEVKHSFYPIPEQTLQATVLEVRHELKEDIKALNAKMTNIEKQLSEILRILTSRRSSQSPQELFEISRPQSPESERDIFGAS
Nature of the series: Two-electrode voltage-clamp recordings of KV10.1 currents in Xenopus laevis oocytes. The series is classed as cell-based. A general note: In two-electrode clamp one electrode senses voltage and the other passes current.

pEC50: −log10 of the molar value. Where two headings read alike, the source gives them in different places.

The pEC50 is the EC50 on a negative log10 scale, so that one unit is a factor of ten. Take `COc1ccc(C(=O)NCCc2cc(Br)c(OCCCN(C)C)c(Br)c2)cc1Cl` [Compound 5, 3-Chloro-N-[3,5-dibromo-4-[3-(dimethylamino)propoxy]phenethyl]-4-methoxybenzamide]: the pEC50 in series [1] (human, DU145 cells) is 4.22; in series [1] (human, LNCaP cells), 4.39; in series [1] (human, MDA-MB-435S cells), 4.78; in series [1] (human, SH-SY5Y cells), 4.82; in series [1] (human, hTERT RPE-1 cells), 4.81; in series [1] (mouse, NIH-3T3 cells), 5.34. Further, the “time constant (τ) of current decrease on open channels” value at hKV10.1a (10 μM added during 20-s continuous step to 30 mV, no P/4 leak subtraction) is ~ 1.4 s. The “shift of activation curve (ΔV1/2) to more negative potentials” value on hKV10.1a (10 μM, HK solution ([K+]e = 96 mM), Boltzmann fit) amounted to 14.8 ± 2.1 mV. The “half-maximal voltage of activation (V1/2) in presence of compound” value at hKV10.1a (10 μM, HK solution ([K+]e = 96 mM), control V1/2 = 39.3 ± 1.7 mV) is on record as 24.5 ± 1.3 mV. Moreover, on hKV10.1a (10 μM, HK solution, control k = 15.7 ± 0.9), the “slope factor k of activation curve in presence of compound” value was 14.5± 1.0.
